Starred links: 1 amine or outer side, 2 acyl side, 3 side chain; linkers in the order of their positions; H or OH if unused. Positions of bridges follow the written chain, without caps; N, C: chain ends. Non-standard residues stand in square brackets, D forms with d. Residues, ends and D or L forms follow the SMILES beside them. *: point of attachment. hTyr(3S-OH,4S-OH,3'-OSO3H) = N[C@H](C(=O)O)[C@H](O)[C@@H](O)c1ccc(O)c(OS(=O)(=O)O)c1; Orn(4R-OH,5R-OH) = O=C([C@H](C[C@@H](O)[C@@H](O)N[*:3])N[*:1])[*:2]; Pro(3S-OH,4S-Me) = C[C@H]1CN[C@H](C(=O)O)[C@H]1O; X1 = CCCCCOc1ccc(-c2cc(-c3ccc(C(=O)*)cc3)no2)cc1; Gln(3R-OH) = NC(=O)C[C@@H](O)[C@H](N)C(=O)O; Hyp = O=C(O)[C@@H]1C[C@@H](O)CN1
Columns and labels:
Format in all cases: cell-based
[1] = tested on: Candida albicans; assay: Broth microdilution (M27-A3, M27-S4), gold standard culture-based AST; details: for Results by broth microdilution method: R: number of resistant among 12 blinds; for Results by broth microdilution method: S: number of susceptible among 12 blinds
Protocol: Step 1. Sample collection and drug susceptibility verification: 120 clinical Candida albicans isolates were collected from 31 hospitals across china in a period between September 2015 and January 2019. All isolates were tested for drug susceptibility using broth microdilution method following the M27-A3 and M27-S4 guidelines of NCCLS, and the results were used as the gold standard (culture-based AST).

[2] = tested on: Candida tropicalis; assay: as above
[3] = tested on: Klebsiella pneumoniae; assay: VITEK2 Compact AST (AST-GN13/GN334 cards), gold standard culture-based AST; details: for Resistance profiles by VITEK2: R: number of resistant among 24 blinds; for Resistance profiles by VITEK2: S: number of susceptible among 24 blinds
From the text: Step 1. Sample collection and drug susceptibility verification: 240 clinical Klebsiella pneumoniae isolates were collected from 23 hospitals across china in a period between January 2018 and March 2019.

Compound: CCCCCOc1ccc(-c2cc(-c3ccc(C(=O)N[C@H]4C[C@@H](O)[C@@H](O)NC(=O)[C@@H]5[C@@H](O)[C@@H](C)CN5C(=O)[C@H]([C@H](O)CC(N)=O)NC(=O)[C@H]([C@H](O)[C@@H](O)c5ccc(O)c(OS(=O)(=O)O)c5)NC(=O)[C@@H]5C[C@@H](O)CN5C(=O)[C@H]([C@@H](C)O)NC4=O)cc3)no2)cc1 [Micafungin] (X1-[Orn(4R-OH,5R-OH)]T[Hyp][hTyr(3S-OH,4S-OH,3'-OSO3H)][Gln(3R-OH)][Pro(3S-OH,4S-Me)]; lactam 1-C)
- Results by broth microdilution method: R [1]: 0
- Results by broth microdilution method: S [1]: 12

Compound: CC[C@H](C)C[C@H](C)CCCCCCCCC(=O)N[C@H]1C[C@@H](O)[C@@H](NCCN)NC(=O)[C@@H]2[C@@H](O)CCN2C(=O)[C@H]([C@H](O)CCN)NC(=O)[C@H]([C@H](O)[C@@H](O)c2ccc(O)cc2)NC(=O)[C@@H]2C[C@@H](O)CN2C(=O)[C@H]([C@@H](C)O)NC1=O [Caspofungin]
- Results by broth microdilution method: R [1]: 0
- Results by broth microdilution method: S [1]: 12

Compound: Nc1nc(=O)[nH]cc1F [5-FC]
- Resistance profiles by broth microdilution (the gold standard) ([2]; blind-1): S
- Resistance profiles by broth microdilution (the gold standard) ([2]; blind-2): S
- Resistance profiles by broth microdilution (the gold standard) ([2]; blind-3): S
- Resistance profiles by broth microdilution (the gold standard) ([2]; blind-4): S
- Resistance profiles by broth microdilution (the gold standard) ([2]; blind-5): S
- Resistance profiles by broth microdilution (the gold standard) ([2]; blind-6): S

Compound: C[C@@H](c1ncncc1F)[C@](O)(Cn1cncn1)c1ccc(F)cc1F [Voriconazole]
- Results by broth microdilution method: R [1]: 2
- Results by broth microdilution method: S [1]: 10

Compound: Cefoperazone-sulbactam
- Resistance profiles by VITEK2: R [3]: 13
- Resistance profiles by VITEK2: S [3]: 11

Compound: C[C@@H]1[C@H](O)[C@@H](C)/C=C/C=C/C=C/C=C/C=C/C=C/C=C/[C@H](O[C@@H]2O[C@H](C)[C@@H](O)[C@H](N)[C@@H]2O)C[C@@H]2O[C@](O)(C[C@@H](O)C[C@@H](O)[C@H](O)CC[C@@H](O)C[C@@H](O)CC(=O)O[C@H]1C)C[C@H](O)[C@H]2C(=O)O [AMB]
- Resistance profiles by broth microdilution (the gold standard) ([2]; blind-1): S
- Resistance profiles by broth microdilution (the gold standard) ([2]; blind-2): S
- Resistance profiles by broth microdilution (the gold standard) ([2]; blind-3): S
- Resistance profiles by broth microdilution (the gold standard) ([2]; blind-4): S
- Resistance profiles by broth microdilution (the gold standard) ([2]; blind-5): S
- Resistance profiles by broth microdilution (the gold standard) ([2]; blind-6): S

Compound: OC(Cn1cncn1)(Cn1cncn1)c1ccc(F)cc1F [Fluconazole]
- Results by broth microdilution method: R [1]: 2
- Results by broth microdilution method: S [1]: 10

Compound: Ampicillin-sulbactam
- Resistance profiles by VITEK2: R [3]: 15
- Resistance profiles by VITEK2: S [3]: 9

Compound: C[C@@H]1[C@H](O)[C@@H](C)/C=C/C=C/C=C/C=C/C=C/C=C/C=C/[C@H](O[C@@H]2O[C@H](C)[C@@H](O)[C@H](N)[C@@H]2O)C[C@@H]2O[C@](O)(C[C@@H](O)C[C@@H](O)[C@H](O)CC[C@@H](O)C[C@@H](O)CC(=O)O[C@H]1C)C[C@H](O)[C@H]2C(=O)O [Amphotericin B]
- Results by broth microdilution method: R [1]: 0
- Results by broth microdilution method: S [1]: 12

From US20220380829A1, “Method of Diagonosizing Pathogens and their Antimicrobial Susceptibility” (HANGZHOU DIAN MEDICAL LABORATORY CO., LTD., priority 2019, published 2022)
